The source of these data is ChEMBL document CHEMBL1914374, “Effect of different C3-aryl substituents on the antioxidant activity of 4-hydroxycoumarin derivatives” (Bioorg Med Chem, 2011).

For orientation: EC50 means the concentration that produces a half-maximal response.

Common to all, as to type: functional
Assay [1] has as its system Radical scavenging activity. The assay can be described thus: Antioxidant activity assessed as DPPH free radical scavenging activity after 10 mins by UV-Vis spectrophotometric analysis. In general terms: The DPPH test is a chemical assay of radical scavenging.
A short description of assay [2]: Antioxidant activity in soybean lipoxygenase-induced beta-carotene-linoleic acid co-oxidation assessed as inhibition of beta-carotene bleaching after 10 mins relative to control. On the set-up: scale not given: the % may be the effect or the level left.
Assay [3] can be described thus: Antioxidant activity assessed as trolox equivalents of ABTS radical scavenging activity by TEAC assay.

As for `O=c1oc2ccccc2c(O)c1-c1cccc2ccccc12`, the EC50 in assay [1] amounted to 6.41 mM. Further, the Activity in assay [2] was 4.26 %/mmol; in assay [3], 56.8 µmolequiv/g.

Regarding `O=c1oc2ccccc2c(O)c1-c1ccccc1`, the EC50 in assay [1] worked out at 4.19 mM. The Activity was found to be 5.79 %/mmol in assay [2] and 46.6 µmolequiv/g in assay [3].

As for `COc1ccccc1-c1c(O)c2ccccc2oc1=O`, in assay [1], the EC50 was 1.92 mM. The Activity in assay [2] amounted to 25.5 %/mmol; in assay [3], 567 µmolequiv/g.

For the molecule `Cc1cc(=O)oc2cc(O)ccc12` [HYMECROMONE], the EC50 in assay [1] is 8.9 mM. The Activity is less than 0.5 %/mmol in assay [2] and 54.8 µmolequiv/g in assay [3].

In the case of `O=c1oc2ccccc2c(O)c1-c1ccccc1Cl`, the concentration giving a half-maximal response (EC50) in assay [1] was found to be 4.14 mM. Also, in assay [3], the Activity stood at 50 µmolequiv/g.

`O=c1oc2ccccc2c(O)c1-c1ccc(Cl)cc1`: in assay [1], the EC50 turned out to be 4.15 mM. Besides, the Activity turned out to be 5.94 %/mmol in assay [2] and 50 µmolequiv/g in assay [3].

Turning to `COc1ccc(-c2c(O)c3ccccc3oc2=O)cc1`, in assay [1], the EC50 was 0.54 mM. Besides, the results for the Activity in assay [2] and in assay [3] were 23.1 %/mmol and 699 µmolequiv/g, respectively.

For the molecule `O=c1cc(O)c2ccccc2o1` [4-HYDROXYCOUMARINS], the 50% effective concentration (EC50) in assay [1] was 3.8 mM. For the same molecule, the Activity is 2.07 %/mmol in assay [2] and 186 µmolequiv/g in assay [3].
